This passage reports IC50, AC50 and EC50 results from ChEMBL document CHEMBL1201862, “PubChem BioAssay data set” (2004).

Calls of active or inactive are those of the source. Cut-off read from the data, not from the text of the source, for most assays here: active = EC50 of 10 µM or less and inactive = more. Where only a bound is given, the exact number is not on record here.

The IC50 is the concentration that inhibits the measured activity by half. By AC50 is commonly meant the concentration giving half of the maximal activity seen. By EC50 is commonly meant the concentration at which the effect is half-maximal.

Assay [1] has as its target Intestinal-type alkaline phosphatase (Mus musculus, UniProt P24822). The assay can be described thus: PubChem AID 488785. In kind it is functional.
Assay [2] concerns the target Heat shock protein HSP 90-alpha (Homo sapiens, UniProt P07900). In kind it is functional, organism-based.
For assay [3], the target named is T1, Insulin-degrading enzyme (Homo sapiens, UniProt P14735).
T1 sequence (P14735 whole entry): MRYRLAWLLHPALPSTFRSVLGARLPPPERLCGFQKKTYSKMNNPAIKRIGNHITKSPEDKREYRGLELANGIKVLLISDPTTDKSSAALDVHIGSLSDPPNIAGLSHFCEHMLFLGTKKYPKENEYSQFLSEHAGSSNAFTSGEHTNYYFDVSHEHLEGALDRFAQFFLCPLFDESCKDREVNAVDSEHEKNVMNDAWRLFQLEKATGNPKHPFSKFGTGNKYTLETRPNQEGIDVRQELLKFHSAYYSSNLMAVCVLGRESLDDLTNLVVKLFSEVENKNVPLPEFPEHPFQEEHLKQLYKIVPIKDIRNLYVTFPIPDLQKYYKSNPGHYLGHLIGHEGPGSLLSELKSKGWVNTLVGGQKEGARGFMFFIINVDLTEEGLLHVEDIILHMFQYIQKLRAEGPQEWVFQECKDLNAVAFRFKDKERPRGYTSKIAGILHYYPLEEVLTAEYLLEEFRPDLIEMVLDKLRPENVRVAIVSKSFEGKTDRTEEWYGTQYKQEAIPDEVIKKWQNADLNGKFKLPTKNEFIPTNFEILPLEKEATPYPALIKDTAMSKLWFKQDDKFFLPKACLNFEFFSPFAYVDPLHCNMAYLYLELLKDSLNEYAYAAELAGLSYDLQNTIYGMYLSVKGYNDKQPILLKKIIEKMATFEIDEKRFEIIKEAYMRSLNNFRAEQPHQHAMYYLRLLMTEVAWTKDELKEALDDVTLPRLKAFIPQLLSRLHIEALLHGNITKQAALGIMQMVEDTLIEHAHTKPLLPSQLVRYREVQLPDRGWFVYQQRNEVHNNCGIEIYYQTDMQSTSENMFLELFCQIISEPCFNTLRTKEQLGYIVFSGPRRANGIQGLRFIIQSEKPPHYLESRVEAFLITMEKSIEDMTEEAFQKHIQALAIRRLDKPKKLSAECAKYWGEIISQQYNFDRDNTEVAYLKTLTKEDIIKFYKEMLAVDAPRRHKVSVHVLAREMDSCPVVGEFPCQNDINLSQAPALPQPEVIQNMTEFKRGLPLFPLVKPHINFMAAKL
Put plainly: activators of recombinant IDE enzyme, dose response, counter-screen for IDE activator project, biochemical, fluorescence polarization (AID 588681).

Assay [4] deals with T1, Insulin-degrading enzyme. The assay can be described thus: activators of endogenous IDE in HEK cells, dose response, cell-based, fluorescence polarization (AID 588439). In kind it is functional. (In general: Polarisation of emitted light reports the rotation of a fluorescent probe.)
Assay [5] has as its target Delta-type opioid receptor (Homo sapiens, UniProt P41143). Put plainly: Counterscreen for agonists of heterodimerization of the mu 1 (OPRM1) and delta 1 (OPRD1) opioid receptors: Luminescence-based cell-based high throughput dose response assay to identify agonists of OPRD1 homodimerization. [Related pubchem assays (depositor defined):AID504326, AID504355, AID504692, AID504904, AID504905]. The format is functional. A general note: The purpose of a counterscreen is to sort out artefacts and off-target activity.

Intestinal-type alkaline phosphatase, sequence (P24822 whole entry): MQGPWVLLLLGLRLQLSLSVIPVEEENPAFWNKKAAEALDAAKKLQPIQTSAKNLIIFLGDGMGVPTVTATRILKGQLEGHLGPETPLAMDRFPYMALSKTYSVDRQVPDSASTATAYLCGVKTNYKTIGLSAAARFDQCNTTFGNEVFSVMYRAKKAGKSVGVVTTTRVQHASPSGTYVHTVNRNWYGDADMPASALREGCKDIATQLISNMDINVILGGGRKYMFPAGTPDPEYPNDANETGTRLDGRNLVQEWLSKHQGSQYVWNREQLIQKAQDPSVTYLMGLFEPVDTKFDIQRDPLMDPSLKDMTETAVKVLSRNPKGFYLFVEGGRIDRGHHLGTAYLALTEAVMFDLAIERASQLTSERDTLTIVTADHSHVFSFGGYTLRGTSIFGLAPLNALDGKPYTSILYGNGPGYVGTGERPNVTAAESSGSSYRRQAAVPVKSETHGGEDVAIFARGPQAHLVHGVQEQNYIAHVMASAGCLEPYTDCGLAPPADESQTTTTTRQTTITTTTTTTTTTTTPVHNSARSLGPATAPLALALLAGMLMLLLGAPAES
Delta-type opioid receptor, sequence (P41143 whole entry): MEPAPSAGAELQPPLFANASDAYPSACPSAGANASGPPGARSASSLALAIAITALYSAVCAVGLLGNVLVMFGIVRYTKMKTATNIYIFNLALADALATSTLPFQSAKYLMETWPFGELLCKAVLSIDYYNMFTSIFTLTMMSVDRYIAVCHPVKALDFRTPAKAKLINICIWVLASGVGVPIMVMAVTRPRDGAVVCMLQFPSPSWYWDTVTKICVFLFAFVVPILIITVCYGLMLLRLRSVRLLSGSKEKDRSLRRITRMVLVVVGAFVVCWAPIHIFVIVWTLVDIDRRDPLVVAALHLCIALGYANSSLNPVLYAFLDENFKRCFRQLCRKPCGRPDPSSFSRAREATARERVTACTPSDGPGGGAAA

Turning to `Clc1ccc(C(c2ccc(Cl)cc2)n2cc[n+](CC(OCc3ccc(Cl)cc3Cl)c3ccc(Cl)cc3Cl)c2)cc1` (stereo not given) [CALMIDAZOLIUM CHLORIDE], the IC50 in assay [1] is 14.6 µM (active). Further, the AC50 in assay [2] was 7.07 µM (active). For the same compound, the EC50 on Insulin-degrading enzyme [3] was > 54.7 µM (inactive); on Insulin-degrading enzyme [4] it was > 2.03 µM (active); in assay [5], > 92.5 µM (inactive).
